Experiments:
[1] = tested on: OA63 (DNA, aptamer) CCGGGTGGGTGGGTGTGGTCTTGTATTTGATTATGTCTGTCGGCGCTTTTTGGCCCCTTCGTT; assay: electrochemical aptasensor (DPV); conditions: 150 mM NaCl, 2 mM Mg2+; 50 mM Tris pH 7.5, 25 °C, 30 min; capture probe P63_8; 5-200 nM OA
[2] = tested on: OA31 (DNA, aptamer) CCACCAACGAGAGTCAGAAAACCATGGTGGG; assay: electrochemical aptasensor (DPV); conditions: 150 mM NaCl, 2 mM Mg2+, capture probe P31_14

| Structure (SMILES) | binding [1] | binding ([2]; 50 mM Tris pH 7.5, 4 °C, 5 min, 5-200 nM OA) | binding ([2]; 50 mM Tris pH 7.5, sensitivity 2 times lower than for OA) |
| --- | --- | --- | --- |
| C=C1[C@@H](O)[C@@H]2O[C@]3(CC[C@H](/C=C/[C@@H](C)[C@@H]4CC(C)=C[C@@]5(O[C@H](C[C@@](C)(O)C(=O)O)CC[C@H]5O)O4)O3)CC[C@H]2O[C@@H]1[C@@H](O)C[C@H](C)[C@H]1O[C@@]2(CCCCO2)CC[C@H]1C | yes | yes |  |
| C=C1[C@@H](O)[C@@H]2O[C@]3(CC[C@H](/C=C/[C@@H](C)[C@@H]4CC(C)=C[C@@]5(O[C@H](C[C@@](C)(O)C(=O)O)CC[C@H]5O)O4)O3)CC[C@H]2O[C@@H]1[C@@H](O)C[C@H](C)[C@H]1O[C@@]2(CC[C@H]1C)OCCC[C@H]2C |  |  | yes |

Reference: paper PMC12562321 (2025)
